In US8802678B2, “Carbonylated (aza) cyclohexanes as dopamine D3 receptor ligands” (Bioprojet, priority 2006, dated 2014) one finds melting point data, which are given here for 35 compounds.

`CS(=O)(=O)CC(=O)N[C@H]1CC[C@H](CCN2CCN(c3cccc(F)c3F)CC2)CC1` [Example 426, N-(4-{2-[4-(2,3-Difluorophenyl)-piperazin-1-yl]ethyl}cyclohexyl)-2-methanesulfonylacetamide] returned a melting point of 214 °C.

In turn, `CS(=O)(=O)CC(=O)N[C@H]1CC[C@H](CCN2CCN(c3ccc(Cl)cc3)CC2)CC1` [Example 427, N-(4-{2-[4-(4-Chlorophenyl)-piperazin-1-yl]ethyl}cyclohexyl)-2-methanesulfonylacetamide] showed a melting point of 214 °C.

`Cc1ccccc1N1CCN(CC[C@H]2CC[C@H](NC(=O)CCCC#N)CC2)CC1` [Example 428, 4-Cyano-N-{4-[2-(4-o-tolylpiperazin-1-yl)ethyl]cyclohexyl}butanamide] had a melting point of 160 °C.

For the compound `Cc1cccc(N2CCN(CC[C@H]3CC[C@H](NC(=O)CCCC#N)CC3)CC2)c1C` [Example 429, 4-Cyano-N-(4-{2-[4-(2,3-dimethylphenyl)piperazin-1-yl]ethyl}cyclohexyl)butanamide], the melting point stood at 162 °C.

On to `N#CCCCC(=O)N[C@H]1CC[C@H](CCN2CCN(c3ccc(F)c(C(F)(F)F)c3)CC2)CC1` [Example 430, 4-Cyano-N-(4-{2-[4-(4-fluoro-3-trifluoromethylphenyl)piperazin-1-yl]ethyl}cyclohexyl)butanamide], for which the melting point came to 149 °C.

For `O=C(N[C@H]1CC[C@H](CCN2CCN(c3ccc(F)cc3)CC2)CC1)C1=CCCC1` [Example 431, Cyclopent-1-enecarboxylic acid (4-{2-[4-(4-fluorophenyl)-piperazin-1-yl]ethyl}cyclohexyl) amide], the melting point came out at 227 °C.

On to `N#CCCCC(=O)N[C@H]1CC[C@H](CCN2CCN(c3cc(C#N)cc(C(F)(F)F)c3)CC2)CC1` [Example 432, 4-Cyano-N-(4-{2-[4-(3-cyano-5-trifluoromethylphenyl)piperazin-1-yl]ethyl}cyclohexyl)butanamide], for which the melting point turned out to be 174 °C.

As to `Cc1cc(Cl)cc(N2CCN(CC[C@H]3CC[C@H](NC(=O)CC#N)CC3)CC2)c1` [Example 437, N-(4-{2-[4-(3-Chloro-5-methylphenyl)piperazin-1-yl]ethyl}cyclohexyl)-2-cyanoacetamide], the melting point turned out to be 185 °C.

Regarding `Cc1cc(Cl)cc(N2CCN(CC[C@H]3CC[C@H](NC(=O)CCCC#N)CC3)CC2)c1` [Example 438, N-(4-{2-[4-(3-Chloro-5-methylphenyl)piperazin-1-yl]ethyl}cyclohexyl)-4-cyanobutanamide], the melting point came out at 165 °C.

`CCOc1ccccc1N1CCN(CC[C@H]2CC[C@H](NC(=O)CCCC#N)CC2)CC1` [Example 439, 4-Cyano-N-(4-{2-[4-(2-ethoxyphenyl)piperazin-1-yl]ethyl}cyclohexyl)butanamide] gave a melting point of 137 °C.

`Cc1ccc(F)c(N2CCN(CC[C@H]3CC[C@H](NC(=O)CCCC#N)CC3)CC2)c1` [Example 440, 4-Cyano-N-(4-{2-[4-(2-fluoro-5-methylphenyl)piperazin-1-yl]ethyl}cyclohexyl)butanamide] registered a melting point of 156 °C.

Take `O=C(N[C@H]1CC[C@H](CCN2CCN(c3cc(F)ccc3F)CC2)CC1)C1=CCCC1` [Example 441, Cyclopent-1-enecarboxylic acid (4-{2-[4-(2,5-difluorophenyl)-piperazin-1-yl]ethyl}cyclohexyl) amide]: the melting point was 209 °C.

`N#CCCCC(=O)N[C@H]1CC[C@H](CCN2CCN(c3cc(F)ccc3F)CC2)CC1` [Example 442, 4-Cyano-N-(4-{2-[4-(2,5-difluorophenyl)piperazin-1-yl]ethyl}cyclohexyl)butanamide] came in with a melting point of 159 °C.

On to `O=C(N[C@H]1CC[C@H](CCN2CCN(c3cccc(C(F)(F)F)c3F)CC2)CC1)C(F)F` [Example 443, 2,2-Difluoro-N-(4-{2-[4-(2-fluoro-3-trifluoromethylphenyl)piperazin-1-yl]ethyl}cyclohexyl)acetamide], for which the melting point was 156 °C.

For the compound `N#CCCCC(=O)N[C@H]1CC[C@H](CCN2CCN(c3cccc(F)c3F)CC2)CC1` [Example 445, 4-Cyano-N-(4-{2-[4-(2,3-difluorophenyl)piperazin-1-yl]ethyl}cyclohexyl)butanamide], the melting point worked out at 197 °C.

The compound `O=C(CC(F)(F)F)N[C@H]1CC[C@H](CCN2CCN(c3cccc(F)c3F)CC2)CC1` [Example 446, N-(4-{2-[4-(2,3-Difluorophenyl)piperazin-1-yl]ethyl}cyclohexyl)-3,3,3-trifluoropropanamide] gave a melting point of 220 °C.

Compound `O=C(N[C@H]1CC[C@H](CCN2CCN(c3cccc(F)c3F)CC2)CC1)C1=CCCC1` [Example 447, Cyclopent-1-enecarboxylic acid (4-{2-[4-(2,3-difluorophenyl)-piperazin-1-yl]ethyl}cyclohexyl) amide] displayed a melting point of 225 °C.

`N#CCCCC(=O)N[C@H]1CC[C@H](CCN2CCN(c3cccc(C#N)c3)CC2)CC1` [Example 448, 4-Cyano-N-(4-{2-[4-(3-cyanophenyl)piperazin-1-yl]ethyl}cyclohexyl)butanamide] showed a melting point of 184 °C.

In the case of `COc1c(Cl)cccc1N1CCN(CC[C@H]2CC[C@H](NC(=O)CCCC#N)CC2)CC1` [Example 449, N-(4-{2-[4-(3-Chloro-2-methoxyphenyl)piperazin-1-yl]ethyl}cyclohexyl)-4-cyanobutanamide], the melting point is 118 °C.

Consider `N#CCC(=O)N[C@H]1CC[C@H](CCN2CCN(c3ccc(F)c(F)c3F)CC2)CC1` [Example 450, 2-Cyano-N-(4-{2-[4-(2,3,4-trifluorophenyl)piperazin-1-yl]ethyl}cyclohexyl)acetamide], for which the melting point came out at 207 °C.

Compound `N#CCCCC(=O)N[C@H]1CC[C@H](CCN2CCN(c3ccc(F)c(F)c3F)CC2)CC1` [Example 451, 4-Cyano-N-(4-{2-[4-(2,3,4-trifluorophenyl)piperazin-1-yl]ethyl}cyclohexyl)butanamide] returned a melting point of 178 °C.

`CS(=O)(=O)c1cccc(N2CCN(CC[C@H]3CC[C@H](NC(=O)CC(F)(F)F)CC3)CC2)c1` [Example 452, 3,3,3-Trifluoro-N-(4-{2-[4-(3-methanesulfonylphenyl)piperazin-1-yl]ethyl}cyclohexyl)-propanamide]: the melting point turned out to be 173 °C.

In turn, `N#CCC(=O)N[C@H]1CC[C@H](CCN2CCN(c3cccc4c3CCC4)CC2)CC1` [Example 456, 2-Cyano-N-{4-[2-(4-indan-4-ylpiperazin-1-yl)ethyl]cyclohexyl}acetamide] had a melting point of 175 °C.

In turn, `N#CCCCC(=O)N[C@H]1CC[C@H](CCN2CCN(c3cccc4c3CCC4)CC2)CC1` [Example 457, 4-Cyano-N-{4-[2-(4-indan-4-ylpiperazin-1-yl)ethyl]cyclohexyl}butanamide] yielded a melting point of 157 °C.

Compound `O=C(N[C@H]1CC[C@H](CCN2CCN(c3cccc(C(F)(F)F)c3F)CC2)CC1)C1=CCCC1` [Example 458, Cyclopent-1-enecarboxylic acid (4-{2-[4-(2-fluoro-3-trifluoro-methylphenyl)piperazin-1-yl]ethyl}cyclohexyl) amide] registered a melting point of 190 °C.

In turn, `NC(=O)CCC(=O)N[C@H]1CC[C@H](CCN2CCN(c3cccc(C(F)(F)F)c3F)CC2)CC1` [Example 459, N-(4-{2-[4-(2-Fluoro-3-trifluoro-methylphenyl)piperazin-1-yl]ethyl}cyclohexyl)succinamide] displayed a melting point of 244 °C.

In turn, `N#CCCC(F)(F)C(=O)N[C@H]1CC[C@H](CCN2CCN(c3cccc(C(F)(F)F)c3F)CC2)CC1` [Example 460, 4-Cyano-2,2-difluoro-N-(4-{2-[4-(2-fluoro-3-trifluoromethyl-phenyl)piperazin-1-yl]ethyl}cyclohexyl)butanamide] showed a melting point of 151 °C.

Compound `CS(=O)(=O)c1cccc(N2CCN(CC[C@H]3CC[C@H](NC(=O)C(F)(F)F)CC3)CC2)c1` [Example 461, 2,2,2-Trifluoro-N-(4-{2-[4-(3-methanesulfonylphenyl)piperazin-1-yl]ethyl}cyclohexyl)acetamide] gave a melting point of 132 °C.

In turn, `N#CCCCC(=O)NC1CCC(CCN2CCN(c3cccc(-c4ccccc4)c3)CC2)CC1` (centres unmarked) [Example 462, N-{4-[2-(4-Biphenyl-3-ylpiperazin-1-yl)ethyl]cyclohexyl}-4-cyanobutanamide] registered a melting point of 119 °C.

Take `O=C(N[C@H]1CC[C@H](CCN2CCN(c3cc(F)c(F)c(F)c3)CC2)CC1)C1=CCCC1` [Example 463, Cyclopent-1-enecarboxylic acid (4-{2-[4-(3,4,5-trifluorophenyl)piperazin-1-yl]ethyl}cyclohexyl) amide]: the melting point amounted to 208 °C.

For the compound `CC(=O)CN1CCC(CCN2CCN(c3ccc(C)c(C#N)c3)CC2)CC1` [Example 464, 2-Methyl-5-(4-{2-[1-(2-oxopropyl)piperidin-4-yl]ethyl}piperazin-1-yl)benzonitrile], the melting point was determined as 107 °C.

Regarding `CCOCC(=O)N[C@H]1CC[C@H](CCN2CCN(c3cc(F)c(F)c(F)c3)CC2)CC1` [Example 465, 2-Ethoxy-N-(4-{2-[4-(3,4,5-trifluorophenyl)piperazin-1-yl]ethyl}cyclohexyl)acetamide], the melting point was determined as 133 °C.

`O=C(N[C@H]1CC[C@H](CCN2CCN(c3cc(F)c(F)c(F)c3)CC2)CC1)C1CC=CC1` [Example 466, Cyclopent-3-enecarboxylic acid (4-{2-[4-(3,4,5-trifluorophenyl)piperazin-1-yl]ethyl}cyclohexyl) amide]: the melting point was determined as 224 °C.

`Cc1ccc(N2CCN(CC[C@H]3CC[C@H](NC(=O)CCCC#N)CC3)CC2)cc1` [Example 467, 4-Cyano-N-{4-[2-(4-p-tolylpiperazin-1-yl)ethyl]cyclohexyl}butanamide] registered a melting point of 189 °C.

Compound `CS(=O)(=O)c1cccc(N2CCN(CC[C@H]3CC[C@H](NC(=O)CCC(F)(F)F)CC3)CC2)c1` [Example 469, 4,4,4-Trifluoro-N-(4-{2-[4-(3-methanesulfonylphenyl)piperazin-1-yl]ethyl}cyclohexyl)butanamide] yielded a melting point of 205 °C.

The term melting point denotes the temperature of the solid-liquid transition.
